From ChEMBL document CHEMBL5614447, “Innovative Drug Discovery: Targeting Cancer, Neurological Disorders, and Obesity” (ACS Med Chem Lett, 2024) come the findings set out here.

A value given as a limit tells only on which side of the number the result lay.

This assay deals with Protein cereblon/DNA damage-binding protein 1 (Homo sapiens) (UniProt Q96SW2+Q16531). The assay can be described thus: Displacement of AlexaFlour-conjugated ligand from CRBN/DDB1 complex (unknown origin) incubated in 0.05% PA/0.1% BSA at room temperature for 60 mins by fluorescence polarization assay. In kind it is protein assay. A general note: In fluorescence polarisation assays a small probe gives low polarisation when free and higher when bound to something large.
Sequence of Protein cereblon/DNA damage-binding protein 1 (Homo sapiens) (Q16531 2-1140 partner limits assumed): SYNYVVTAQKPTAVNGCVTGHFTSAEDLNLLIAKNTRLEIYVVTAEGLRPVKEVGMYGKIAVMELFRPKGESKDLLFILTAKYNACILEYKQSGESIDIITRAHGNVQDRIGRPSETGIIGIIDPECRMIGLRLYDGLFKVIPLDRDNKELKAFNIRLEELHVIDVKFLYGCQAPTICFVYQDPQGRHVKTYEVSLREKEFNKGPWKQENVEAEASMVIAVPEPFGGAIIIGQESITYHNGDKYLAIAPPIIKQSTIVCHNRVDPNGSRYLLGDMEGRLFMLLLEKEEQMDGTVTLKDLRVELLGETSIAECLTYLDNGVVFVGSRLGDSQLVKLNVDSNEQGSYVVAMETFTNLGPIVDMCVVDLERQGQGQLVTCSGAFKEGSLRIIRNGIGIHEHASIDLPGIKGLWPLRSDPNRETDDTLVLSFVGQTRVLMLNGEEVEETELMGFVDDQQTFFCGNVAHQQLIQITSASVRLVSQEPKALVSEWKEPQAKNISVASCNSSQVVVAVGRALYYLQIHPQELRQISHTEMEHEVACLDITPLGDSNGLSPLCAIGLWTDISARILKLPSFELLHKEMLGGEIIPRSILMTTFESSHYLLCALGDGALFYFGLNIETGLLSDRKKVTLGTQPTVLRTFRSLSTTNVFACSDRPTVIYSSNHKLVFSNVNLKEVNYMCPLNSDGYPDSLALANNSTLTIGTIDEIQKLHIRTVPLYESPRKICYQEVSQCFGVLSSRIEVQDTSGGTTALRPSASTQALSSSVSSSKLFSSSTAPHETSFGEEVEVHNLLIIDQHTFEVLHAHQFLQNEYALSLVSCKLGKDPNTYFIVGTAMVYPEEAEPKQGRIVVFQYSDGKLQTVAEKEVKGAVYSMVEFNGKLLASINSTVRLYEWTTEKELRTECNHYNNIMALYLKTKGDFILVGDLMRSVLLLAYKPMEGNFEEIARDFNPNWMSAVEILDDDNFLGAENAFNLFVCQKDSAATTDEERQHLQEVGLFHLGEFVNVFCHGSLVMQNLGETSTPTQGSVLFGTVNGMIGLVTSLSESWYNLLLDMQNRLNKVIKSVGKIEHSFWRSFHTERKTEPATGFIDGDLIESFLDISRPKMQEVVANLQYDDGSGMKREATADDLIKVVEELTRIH
Sequence of Protein cereblon/DNA damage-binding protein 1 (Homo sapiens) (Q96SW2 whole entry): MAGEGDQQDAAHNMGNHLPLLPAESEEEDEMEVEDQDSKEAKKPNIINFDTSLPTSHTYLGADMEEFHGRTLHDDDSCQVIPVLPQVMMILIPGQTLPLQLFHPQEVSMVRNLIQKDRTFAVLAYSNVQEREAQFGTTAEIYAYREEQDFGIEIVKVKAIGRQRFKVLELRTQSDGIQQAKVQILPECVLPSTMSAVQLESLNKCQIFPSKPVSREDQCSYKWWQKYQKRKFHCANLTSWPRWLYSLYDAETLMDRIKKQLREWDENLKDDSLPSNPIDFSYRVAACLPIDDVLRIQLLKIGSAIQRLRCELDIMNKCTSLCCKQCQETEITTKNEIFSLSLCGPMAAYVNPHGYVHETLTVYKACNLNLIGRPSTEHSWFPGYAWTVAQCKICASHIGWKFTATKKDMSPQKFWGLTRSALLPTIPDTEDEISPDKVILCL
In turn, `CNC1CCN(c2cccc3c2O[C@H](C)CN3C2CCC(=O)NC2=O)CC1` (stereo partly drawn) showed a binding affinity (displacement) of less than 100 µM.
To `CN(C(=O)OC(C)(C)C)C1CCN(c2cccc3c2OCCN3[C@@H]2CCC(=O)NC2=O)CC1` belongs less than 1 µM.
To `O=C1CCC(N2CCOc3c([C@@H]4CCCNC4)cccc32)C(=O)N1` (stereo partly drawn) belongs less than 100 µM; to `O=C1CCC(N2CCOc3c([C@@H]4CCNC4)cccc32)C(=O)N1` (stereo partly drawn), less than 100 µM.
To `CN(C(=O)OC(C)(C)C)C1CCN(c2cccc3c2OCCN3[C@H]2CCC(=O)NC2=O)CC1` belongs less than 100 µM.
`CNC1CCN(c2cccc3c2O[C@@H](C)CN3C2CCC(=O)NC2=O)CC1` (stereo partly drawn) came in with a binding affinity (displacement) of less than 100 µM.
To `O=C1CCC(N2CCOc3c(N4CCNCC4)cccc32)C(=O)N1` (stereo not drawn) belongs less than 100 µM; to `O=C1CCC(N2CCOc3c([C@H]4CCNC4)cccc32)C(=O)N1` (stereo partly drawn), less than 100 µM.
